Test results reported in the supplement of paper PMC10307832.

How the values were obtained:
Experiment in all cases: relative viability (nuclei count vs DMSO), 5 days (fraction); higher = more cells survive
[1] = test system: ABC-1
Procedure, shortened: (§1)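 Lung cancer cell lines were seeded in 1536-well plates and dosed by pin tool the next day, with either a single drug or a fixed anchor-drug dose combined with five library-drug doses (not always all listed) spaced in √10 steps. Five days later, one step fixed the cells and stained their nuclei (final 0.05% Triton X-100, 1% formaldehyde, 1 ug/ml Hoechst), and nuclei were counted on 4× images. Relative viability is the nuclei count in treated wells divided by the count in vehicle wells, and each value is the median of duplicate plates.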

[2] = test system: LXF-289
Procedure, shortened: as §1

[3] = test system: NCI-H2347
Procedure, shortened: as §1

[4] = test system: NCI-H1915
Procedure, shortened: as §1

[5] = test system: NCI-H1437
Procedure, shortened: as §1

[6] = test system: EKVX
Procedure, shortened: as §1

[7] = test system: HCC-366
Procedure, shortened: as §1

[8] = test system: NCI-H2170
Procedure, shortened: as §1

[9] = test system: NCI-H358
Procedure, shortened: as §1

[10] = test system: HCC-78
Procedure, shortened: as §1

[11] = test system: HARA
Procedure, shortened: as §1

[12] = test system: CAL-12T
Procedure, shortened: as §1

[13] = test system: UMC-11
Procedure, shortened: as §1

[14] = test system: Calu-6
Procedure, shortened: as §1

[15] = test system: LOU-NH91
Procedure, shortened: as §1

[16] = test system: NCI-H1793
Procedure, shortened: as §1

[17] = test system: HCC-827
Procedure, shortened: as §1

[18] = test system: 201T
Procedure, shortened: as §1

[19] = test system: NCI-H1734
Procedure, shortened: as §1

[20] = test system: COR-L 105
Procedure, shortened: as §1

[21] = test system: EBC-1
Procedure, shortened: as §1

[22] = test system: NCI-H2342
Procedure, shortened: as §1

[23] = test system: LU99A
Procedure, shortened: as §1

Nc1cccc2c1CN(C1CCC(=O)NC1=O)C2=O (centres undefined) [Lenalidomide] + COc1cc2c(Oc3ccc(NC(=O)C4(C(=O)Nc5ccc(F)cc5)CC4)cc3F)ccnc2cc1OCCCN1CCOCC1 [Foretinib] (partner 0.25 µM)
relative viability ([1]; first compound 0.253 µM): 0.977 | relative viability ([1]; first compound 0.8 µM): 1.19 | relative viability ([1]; first compound 2.53 µM): 1.14 | relative viability ([1]; first compound 8 µM): 0.811 | relative viability ([2]; first compound 0.253 µM): 0.977 | relative viability ([2]; first compound 0.8 µM): 1.01 | relative viability ([2]; first compound 2.53 µM): 1.07 | relative viability ([2]; first compound 8 µM): 1.09 | relative viability ([3]; first compound 0.253 µM): 0.881 | relative viability ([3]; first compound 0.8 µM): 1.05 | relative viability ([3]; first compound 2.53 µM): 0.956 | relative viability ([3]; first compound 8 µM): 0.364 | relative viability ([4]; first compound 0.253 µM): 1.07 | relative viability ([4]; first compound 0.8 µM): 1.03 | relative viability ([4]; first compound 2.53 µM): 1.14 | relative viability ([4]; first compound 8 µM): 1.14 | relative viability ([5]; first compound 0.253 µM): 1.34 | relative viability ([5]; first compound 0.8 µM): 1.25 | relative viability ([5]; first compound 2.53 µM): 1.32 | relative viability ([5]; first compound 8 µM): 1.46 | relative viability ([6]; first compound 0.253 µM): 0.806 | relative viability ([6]; first compound 0.8 µM): 0.772 | relative viability ([6]; first compound 2.53 µM): 0.46 | relative viability ([6]; first compound 8 µM): 0.932 | relative viability ([7]; first compound 0.253 µM): 0.916 | relative viability ([7]; first compound 0.8 µM): 1.04 | relative viability ([7]; first compound 2.53 µM): 0.915 | relative viability ([7]; first compound 8 µM): 0.929 | relative viability ([8]; first compound 0.253 µM): 0.972 | relative viability ([8]; first compound 0.8 µM): 1 | relative viability ([8]; first compound 2.53 µM): 1.04 | relative viability ([8]; first compound 8 µM): 1.02 | relative viability ([9]; first compound 0.253 µM): 0.47 | relative viability ([9]; first compound 0.8 µM): 0.987 | relative viability ([9]; first compound 2.53 µM): 0.791 | relative viability ([9]; first compound 8 µM): 0.797 | relative viability ([10]; first compound 0.253 µM): 0.673 | relative viability ([10]; first compound 0.8 µM): 0.526 | relative viability ([10]; first compound 2.53 µM): 0.516 | relative viability ([10]; first compound 8 µM): 0.514 | relative viability ([11]; first compound 0.253 µM): 0.846 | relative viability ([11]; first compound 2.53 µM): 0.856 | relative viability ([11]; first compound 8 µM): 0.955 | relative viability ([12]; first compound 0.253 µM): 1.21 | relative viability ([12]; first compound 0.8 µM): 1.22 | relative viability ([12]; first compound 2.53 µM): 1.23 | relative viability ([12]; first compound 8 µM): 1.29 | relative viability ([13]; first compound 0.253 µM): 1.02 | relative viability ([13]; first compound 0.8 µM): 1.07 | relative viability ([13]; first compound 2.53 µM): 1.06 | relative viability ([13]; first compound 8 µM): 0.953 | relative viability ([14]; first compound 0.253 µM): 0.932 | relative viability ([14]; first compound 0.8 µM): 0.889 | relative viability ([14]; first compound 2.53 µM): 0.921 | relative viability ([14]; first compound 8 µM): 0.887 | relative viability ([15]; first compound 0.253 µM): 0.97 | relative viability ([15]; first compound 0.8 µM): 0.923 | relative viability ([15]; first compound 2.53 µM): 0.942 | relative viability ([15]; first compound 8 µM): 0.898 | relative viability ([16]; first compound 0.253 µM): 0.706 | relative viability ([16]; first compound 2.53 µM): 1.04 | relative viability ([16]; first compound 8 µM): 0.655 | relative viability ([17]; first compound 0.253 µM): 1.03 | relative viability ([17]; first compound 0.8 µM): 1.05 | relative viability ([17]; first compound 2.53 µM): 1.01 | relative viability ([17]; first compound 8 µM): 1.04 | relative viability ([18]; first compound 0.253 µM): 1.08 | relative viability ([18]; first compound 2.53 µM): 1.23 | relative viability ([18]; first compound 8 µM): 1.13 | relative viability ([19]; first compound 0.253 µM): 0.894 | relative viability ([19]; first compound 0.8 µM): 0.776 | relative viability ([19]; first compound 2.53 µM): 0.932 | relative viability ([19]; first compound 8 µM): 0.809 | relative viability ([20]; first compound 0.253 µM): 0.855 | relative viability ([20]; first compound 0.8 µM): 0.822 | relative viability ([20]; first compound 2.53 µM): 1.12 | relative viability ([20]; first compound 8 µM): 1.16 | relative viability ([21]; first compound 0.253 µM): 0.0951 | relative viability ([21]; first compound 0.8 µM): 0.0871 | relative viability ([21]; first compound 2.53 µM): 0.0994 | relative viability ([21]; first compound 8 µM): 0.109 | relative viability ([22]; first compound 0.253 µM): 1.08 | relative viability ([22]; first compound 0.8 µM): 1.01 | relative viability ([22]; first compound 2.53 µM): 1.11 | relative viability ([22]; first compound 8 µM): 0.898 | relative viability ([23]; first compound 0.253 µM): 0.831 | relative viability ([23]; first compound 0.8 µM): 0.789 | relative viability ([23]; first compound 2.53 µM): 0.761 | relative viability ([23]; first compound 8 µM): 0.599
